Here are results for twelve compounds from ChEMBL document CHEMBL1201862, “PubChem BioAssay data set” (2004).

Common to all, as to assay: NCI anticancer screen, dose series, 48 h
Experiment [1] deals with HOP-62.
Experiment [2] has as its system CCRF-CEM.
For experiment [3], the system named is ACHN.
In experiment [4] the test system is SW-620.
Experiment [5] deals with SR.
In experiment [6] the test system is CAKI-1.
Experiment [7] has as its system SK-MEL-5.
In experiment [8] the test system is IGROV-1.
Experiment [9] has as its system MOLT-4.
Experiment [10] relates to SF-268.
For experiment [11], the system named is SNB-75.
Experiment [12] deals with HOP-92.
The subject of experiment [13] is OVCAR-3.
Experiment [14] concerns RPMI-8226.
For experiment [15], the system named is XF498.
Experiment [16] deals with LOX IMVI.
The test system of experiment [17] is BT-549.
Experiment [18] has as its system MDA-N.
For experiment [19], the system named is MDA-MB-231.
Experiment [20] concerns MCF7.

The structures appear in SMILES notation.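 Protocol summary: plate cells (96-well), add compound at 5 concentrations, incubate 48 h, interpolate endpoints linearly. GI50 = concentration required for 50% inhibition of growth.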 Active and inactive are the calls of the source. No stated cut-off is given here; in the data, active = GI50 up to about 1.1 µM and inactive = higher. A value given as a limit tells only on which side of the number the result lay.

With `O=C(N/N=C1/C(=O)N(c2ccc(Cl)cc2Cl)C(=O)C(=O)C1c1nc2ccccc2o1)c1ccccc1O` (stereo not given), the GI50 in experiment [1] was 28.7 µM (inactive); in experiment [2] it was 47.6 µM (inactive); in experiment [3], 37.5 µM (inactive); in experiment [4], 47.9 µM (inactive); in experiment [5], 47.2 µM (inactive); in experiment [6], 34.8 µM (inactive). The GI50 in [7] is 19 µM (inactive); in [8], 39.9 µM (inactive); in experiment [9] it was 34.7 µM (inactive); in [10], 41.2 µM (inactive); in experiment [11] it was 43.3 µM (inactive); in experiment [12], 30.5 µM (inactive). The GI50 in experiment [13] was 21.8 µM (inactive); in experiment [14], 43.4 µM (inactive); in [15], 20.4 µM (inactive).

For `C=C[C@@H](C)[C@]1(C(=O)OC)CCCC12OCCO2`, the GI50 was > 100 µM (inactive) in experiment [1]; > 100 µM (inactive) in [2]; > 100 µM (inactive) in experiment [3]; 68.5 µM (inactive) in experiment [5]; > 100 µM (inactive) in experiment [6]; > 100 µM (inactive) in [7]. Besides, the GI50 in experiment [8], in [9], in [10], in experiment [11], in experiment [12] and in [13] was > 100 µM (inactive) each time. In addition, the figures for the GI50 in experiment [16], in experiment [14] and in experiment [15] were > 100 µM (inactive), 72.9 µM (inactive) and > 100 µM (inactive), respectively.

For `O=C(NC(=O)c1c(Cl)nc2sccn12)Nc1ccc(Cl)cc1`, the GI50 in [17] was 28.4 µM (inactive); in experiment [1], 19.5 µM (inactive); in [2], > 100 µM (inactive); in experiment [3], 77.4 µM (inactive); in experiment [18], > 100 µM (inactive); in experiment [19], 25.5 µM (inactive). Also, the GI50 in [4] was > 100 µM (inactive); in [5] it was > 100 µM (inactive); in experiment [6] it was > 83.9 µM (inactive); in [7] it was > 88.3 µM (inactive); in [8], 49.4 µM (inactive); in experiment [9], > 100 µM (inactive). The GI50 was 26.2 µM (inactive) in experiment [10]; 19.9 µM (inactive) in [11]; 25.1 µM (inactive) in experiment [12]; 71.4 µM (inactive) in experiment [13]; 15.5 µM (inactive) in [20]; 63.4 µM (inactive) in experiment [16]. Besides, the GI50 is > 100 µM (inactive) in [14] and 17.9 µM (inactive) in experiment [15].

Regarding `C=C1C(=O)OC2(C)C3CCC(C3)C12` (stereo not given), the GI50 in experiment [1] is > 100 µM (inactive); in experiment [2], 24.8 µM (inactive); in experiment [3] it was > 100 µM (inactive); in experiment [4], 47.2 µM (inactive); in experiment [5], 29.6 µM (inactive); in [6], 30.1 µM (inactive). For the same compound, the GI50 in [7] is 87.1 µM (inactive); in experiment [8], > 100 µM (inactive); in experiment [9], 34 µM (inactive); in experiment [10], 69.2 µM (inactive); in experiment [11] it was 47.1 µM (inactive); in experiment [12] it was 29 µM (inactive). Also, the GI50 in [13] was 53.5 µM (inactive); in [16] it was 80.2 µM (inactive); in [14] it was 34.4 µM (inactive); in [15], 29.1 µM (inactive).

As for `CCC1(O)C(=O)OCc2c1cc1n(c2=O)Cc2cc3c(N)cccc3nc2-1` (stereo not given) [RS-9-Aminocamptothecin], the GI50 in [17] was 0.0668 µM (active); in experiment [1], < 0.0119 µM (active); in experiment [2] it was < 0.01 µM (active); in experiment [3], < 0.01 µM (active); in [18], 0.182 µM (active); in experiment [19], 2.1 µM (inactive). The GI50 is 0.0281 µM (active) in experiment [4]; < 0.01 µM (active) in [5]; < 0.01 µM (active) in experiment [6]; 0.0255 µM (active) in [7]; 0.327 µM (active) in [8]; < 0.01 µM (active) in experiment [9]. The GI50 in [10] was < 0.01 µM (active); in [11] it was 0.013 µM (active); in experiment [12], 0.0349 µM (active); in [13], 0.277 µM (active); in experiment [20] it was < 0.01 µM (active); in experiment [16], < 0.01 µM (active). Moreover, the GI50 was 0.0416 µM (active) in [14] and 0.145 µM (active) in experiment [15].

On to `O=C(CSC(=S)N1CCOCC1)Nc1nc2c(s1)CCCC2`, for which the GI50 was > 100 µM (inactive) in experiment [1]; 45.8 µM (inactive) in [2]; > 100 µM (inactive) in experiment [3]; 34.2 µM (inactive) in [5]; 35.5 µM (inactive) in [7]; > 100 µM (inactive) in [8]. The GI50 is > 100 µM (inactive) in [9]; > 100 µM (inactive) in experiment [10]; > 100 µM (inactive) in experiment [11]; 23.9 µM (inactive) in experiment [12]; 51.9 µM (inactive) in experiment [13]; > 100 µM (inactive) in experiment [16]. Further, the GI50 in experiment [14] is > 100 µM (inactive); in experiment [15] it was 50.1 µM (inactive).

As for `COC(=O)C1(C)C=C(Nc2ccccc2)C(=O)N1c1ccccc1` (stereo not given), the GI50 in experiment [1], in experiment [2], in [3], in experiment [4], in [6] and in [7] was > 100 µM (inactive) each time. The GI50 in [8] is > 100 µM (inactive); in experiment [9], > 100 µM (inactive); in [10] it was > 100 µM (inactive); in experiment [12] it was 54.1 µM (inactive); in experiment [13], > 100 µM (inactive); in [16] it was > 100 µM (inactive). In addition, the GI50 in [14] and in [15] was > 100 µM (inactive) in each case.

As to `N#CCCN(CCC#N)c1ccc(/C=N\c2nc(-c3ccccc3)cs2)cc1`, the GI50 in [1] is 84.3 µM (inactive); in experiment [3], > 100 µM (inactive); in [4] it was > 100 µM (inactive); in experiment [6], > 100 µM (inactive); in experiment [7], > 100 µM (inactive); in experiment [8], > 100 µM (inactive). The GI50 is > 100 µM (inactive) in experiment [9]; > 100 µM (inactive) in experiment [10]; 29.8 µM (inactive) in experiment [11]; 50.8 µM (inactive) in [12]; > 100 µM (inactive) in experiment [13]; > 100 µM (inactive) in [16]. For the same compound, the GI50 in experiment [14] is > 100 µM (inactive); in experiment [15] it was 56.8 µM (inactive).

For `O=S(=O)(O)SC/C=C\CSS(=O)(=O)O`, the GI50 in experiment [1], in [3], in experiment [4], in experiment [5], in experiment [6] and in [7] was > 100 µM (inactive) throughout. Also, the GI50 in experiment [8] is > 100 µM (inactive); in [9], 35.8 µM (inactive); in [10] it was > 100 µM (inactive); in [11] it was > 100 µM (inactive); in experiment [12], > 100 µM (inactive); in experiment [13], > 100 µM (inactive). Moreover, the GI50 in [16] was 29.4 µM (inactive); in experiment [14] it was > 100 µM (inactive); in experiment [15] it was > 100 µM (inactive).

Regarding `O=[N+]([O-])c1cccc(Nc2nc(Cl)nc(Cl)n2)c1`, the GI50 in experiment [1], in [2], in experiment [3], in experiment [4], in experiment [5] and in [6] was > 100 µM (inactive) each time. Further, the GI50 in experiment [7], in experiment [9], in experiment [10], in experiment [11], in [13] and in experiment [16] was > 100 µM (inactive) throughout. The GI50 in [14] and in experiment [15] was > 100 µM (inactive) in each case.

With `CCOc1ccc(NC(=O)CC2SC(Nc3ccc(Cl)cc3)=NC2=O)cc1` (stereo not given), the GI50 is > 100 µM (inactive) in experiment [1]; 18.3 µM (inactive) in experiment [2]; > 100 µM (inactive) in experiment [3]; 98.9 µM (inactive) in [4]; 21.5 µM (inactive) in [6]; > 100 µM (inactive) in [7]. The GI50 in experiment [8] is > 100 µM (inactive); in experiment [9], 29.4 µM (inactive); in experiment [10] it was > 100 µM (inactive); in experiment [11], 29.8 µM (inactive); in experiment [13], > 100 µM (inactive); in [16] it was > 100 µM (inactive). The results for the GI50 in experiment [14] and in [15] were 58.6 µM (inactive) and > 100 µM (inactive), respectively.

`NCCSCC(N)C(=O)O` (stereo not given): the GI50 was > 100 µM (inactive) in experiment [17]; > 497 µM (inactive) in experiment [1]; 29 µM (inactive) in [2]; 65.9 µM (inactive) in experiment [3]; > 100 µM (inactive) in experiment [19]; 46.8 µM (inactive) in experiment [4]. Also, the GI50 was > 497 µM (inactive) in experiment [5]; > 100 µM (inactive) in experiment [6]; > 63.7 µM (inactive) in experiment [7]; > 87.5 µM (inactive) in experiment [8]; > 497 µM (inactive) in experiment [9]; > 497 µM (inactive) in [10]. Besides, the GI50 in [11] is > 40.4 µM (inactive); in [12], > 497 µM (inactive); in experiment [13] it was > 64.9 µM (inactive); in experiment [20], 46.7 µM (inactive); in experiment [16], > 497 µM (inactive); in experiment [14] it was 47.1 µM (inactive). Also, in experiment [15], the GI50 was > 497 µM (inactive).
